Source: patent US20260248879A1, “METHODS OF USING A GCG/GLP1 CO-AGONIST FOR THERAPY” (ELI LILLY AND COMPANY, priority 2022, published 2026)
Read-outs that look alike come from different tables or passages of the source. Marks after values point to notes of the source that are not given here.

Key:
patients with T2DM [1] = experiment: Example 1 study: gastric emptying (acetaminophen PK); assay type: in vivo, human
[2] = Example 1 study: pharmacokinetics, population PK modeling; conditions: for AUC(0-168)ss, geometric mean (CV %) / Cmax, ss, geometric mean: model-predicted steady state
Excerpt: (§4) Up to two samples may be collected at additional time points during the study if warranted and agreed upon between both the investigator and sponsor.
(§5) All available PK data is utilized for model development.

[3] = human, in vivo
Excerpt: as §4, §5

patients with T2DM [4] = experiment: Example 1 study: HbA1c; assay type: in vivo, human
Excerpt: (§1) This study is a Phase 1, single-site, patient- and investigator-blinded, placebo controlled, randomized, non-crossover, multiple-ascending dose study with titration in each cohort in patients with T2DM to investigate the safety, tolerability, PK, and PD of the GLP-1/glucagon co-agonist peptide of SEQ ID NO:1 (Compound 1) administered as multiple SC injections QW for 12 weeks in Cohort 1 and 16 weeks in Cohort 2.
(§2) The first dosing regimen (also referred to as Cohort 1) is 12 weeks in duration and requires dose increments of 1.5 mg starting from 1.5 mg: • 1.5 mg QW Compound 1 for 4 weeks; • 3.0 mg QW Compound 1 for 4 weeks; and • 4.5 mg QW Compound 1 for 4 weeks.
(§3) The second dosing regimen (also referred to as Cohort 2) is 16 weeks in duration and requires dose increments of 2 mg starting from 2 mg: • 2 mg QW Compound 1 for 3 weeks; • 4 mg QW Compound 1 for 3 weeks; • 6 mg QW Compound 1 for 3 weeks; • 8 mg QW Compound 1 for 3 weeks; and • 10 mg QW Compound 1 for 4 weeks.
In respect of Cohort 1, HbA1c levels are determined at baseline and Days 1, 29, 57 and 78. In respect of Cohort 2, HbA1c is measured at baseline and Days 1, 22, 43, 64, 85 and 106.

patients with T2DM [5] = experiment: Phase 1 multiple-ascending dose study in T2DM (Example 1): body weight, waist circumference, body composition; assay type: in vivo, human
Excerpt: as §1, §2, §3
In respect of each dosing regimen, Compound 1 is administered SC into the abdomen of the patient after an overnight fast for at least 8 hours.
In respect of Cohort 1, body weight is measured at baseline and Days 1, 8, 15, 22, 29, 36, 43, 50, 57, 64, 71 and 78.
Wherever possible, the same scale is used for all weight measurements throughout the study and the scale is not moved or recalibrated. Subjects are weighed in light clothing at approximately the same time in the morning before dosing (on Day 1 only) and after an overnight fast and evacuation of bowel and the bladder, if possible. During the treatment period, weight is measured twice on each scheduled occasion, with the subject stepping off the scale between measurements. The average of the two weight measurements is recorded in the source document.
In respect of Cohort 1, waist circumference is measured at baseline and Days 1, 8, 15, 22, 29, 36, 43, 50, 57, 64, 71 and 78.
Waist circumference is measured at the midpoint between the lower margin of the least palpable rib and the top of the iliac crest. The patient stands with feet close together, arms at the side and body weight evenly distributed, and should wear little clothing. The patient should be relaxed, and the measurements should be taken at the end of a normal expiration. During screening, baseline, the treatment period, and at follow-up, waist circumference will be measured twice on each scheduled occasion. The average of the two measurements will be recorded in the source document.

[6] = Cohort 1 (1.5-4.5 mg QW), D78-80, baseline 59.0
[7] = Cohort 1, escalated to 4.5 mg, Day 78
[8] = Cohort 2 (2-10 mg QW), D106-108, baseline 60.1
[9] = Cohort 2, Day 134 (after end of dosing)
[10] = Cohort 2, Day 162 (after end of dosing)
[11] = Cohort 2, escalated to 4.0 mg, Day 43
[12] = Cohort 2, escalated to 6.0 mg, Day 64
[13] = Cohort 2, escalated to 8.0 mg, Day 85
[14] = Cohort 2, escalated to 10 mg, Day 109

CC(C)C[C@H](NC(=O)[C@H](CC(C)C)NC(=O)[C@H](Cc1c[nH]c2ccccc12)NC(=O)[C@H](CCC(=O)O)NC(=O)[C@@H](NC(=O)[C@H](Cc1ccccc1)NC(=O)[C@H](CCC(=O)O)NC(=O)[C@H](CCCCNC(=O)COCCOCCNC(=O)COCCOCCNC(=O)CC[C@H](NC(=O)CCCCCCCCCCCCCCCCCCC(=O)O)C(=O)O)NC(=O)[C@H](C)NC(=O)[C@H](CCCCN)NC(=O)[C@H](CCCCN)NC(=O)[C@H](CCC(=O)O)NC(=O)[C@H](CC(=O)O)NC(=O)[C@H](CC(C)C)NC(=O)[C@H](Cc1ccc(O)cc1)NC(=O)[C@H](CCCCN)NC(=O)[C@H](CO)NC(=O)[C@H](Cc1ccc(O)cc1)NC(=O)[C@H](CC(=O)O)NC(=O)[C@H](CO)NC(=O)[C@@H](NC(=O)[C@H](Cc1ccccc1)NC(=O)[C@@H](NC(=O)CNC(=O)[C@H](CCC(N)=O)NC(=O)C(C)(C)NC(=O)[C@@H](N)Cc1c[nH]cn1)[C@@H](C)O)[C@@H](C)O)C(C)C)C(=O)N[C@@H](CCC(=O)O)C(=O)NCC(=O)NCC(=O)N1CCC[C@H]1C(=O)N[C@@H](CO)C(=O)N[C@@H](CO)C(=O)NCC(N)=O [Compound 1]
acetaminophen Cmax, Change From Baseline, Mean (patients with T2DM [1]; Cohort 1, Day 107): 1487.25
acetaminophen tmax (patients with T2DM [1]; Cohort 1, Day 107): 1.456 h
acetaminophen tmax (patients with T2DM [1]; Cohort 2, Day 79): 3.302 h
acetaminophen tmax, Change From Baseline, Mean (patients with T2DM [1]; Cohort 2, Day 79): 0.333 h
Vd/F ([2]; human, plasma, sc): 9.52 L
AUC(0-168)ss, geometric mean (CV %) ([2]; 4.5 mg QW): 106000 (22.5%) ng · h/mL
Cmax, ss, geometric mean ([2]; 4.5 mg QW): 698 ng/mL
AUC(0-168)ss, geometric mean (CV %) ([2]; 10 mg QW): 239000 (23.9%) ng · h/mL
Cmax, ss, geometric mean ([2]; 10 mg QW): 1570 ng/mL
Absorption rate constant, KA, population mean estimate ([2]; population PK model, 355 concentrations from 18 patients, SC QW): 0.0299 h⁻¹
t1/2, geomean (range) ([3]; 4.5 mg): 209 (117 to 362) h
t1/2, geomean (range) ([3]; 10 mg): 213 (129 to 366) h
Apparent clearance, CL/F, population mean estimate ([3]; sc): 0.0311 L/h
Change from Baseline in HbA1c (patients with T2DM [4]; Cohort 1 (1.5-4.5 mg QW), Day 29, baseline 8.52): −0.70* %
Change from Baseline in HbA1c (patients with T2DM [4]; Cohort 1, Day 57, baseline 8.52): −1.45* %
Change from Baseline in HbA1c (patients with T2DM [4]; Cohort 1, Day 78, baseline 8.52): −1.80* %
Change from Baseline in HbA1c (patients with T2DM [4]; Cohort 1, Day 106 (28 days after last dose), baseline 8.52): −2.03* %
HbA1c decrease from baseline compared to placebo (patients with T2DM [4]; Cohort 1 and Cohort 2, Day 57 until Day 134): Statistically significant decreases
Change from Baseline in HbA1c (patients with T2DM [4]; Cohort 2 (2-10 mg QW), Day 43, baseline 8.08): −0.83* %
Change from Baseline in HbA1c (patients with T2DM [4]; Cohort 2, Day 64, baseline 8.08): −1.35* %
Change from Baseline in HbA1c (patients with T2DM [4]; Cohort 2, Day 85, baseline 8.08): −1.50* %
Change from Baseline in HbA1c (patients with T2DM [4]; Cohort 2, Day 106, baseline 8.08): −1.67* %
Lean body Mass (patients with T2DM [5]; [6]): 59.4 kg
Lean body mass (patients with T2DM [5]; [6]): 59.4 kg
% Lean body mass (patients with T2DM [5]; Cohort 1 (1.5-4.5 mg QW), D78-80, baseline 60.9%): 64.3%
Waist circumference (patients with T2DM [5]; Cohort 1 (1.5-4.5 mg QW), D78-80, baseline 110.4): 105.7 cm
mean change from baseline in body weight (patients with T2DM [5]; Cohort 1 (1.5-4.5 mg QW), Day 78): −2.88 kg at Day 78
body weight, mean percent change from baseline (patients with T2DM [5]; [7]): −3.03%
waist circumference, approximate reduction from baseline (patients with T2DM [5]; [7]): ~3%
mean body weight (patients with T2DM [5]; Cohort 1, escalated to 4.5 mg, Day 78, baseline 97.19): 94.0 kg
mean waist circumference (patients with T2DM [5]; Cohort 1, escalated to 4.5 mg, Day 78, baseline 108.66): 105.66 cm
Lean body Mass (patients with T2DM [5]; [8]): 56.4 kg
Lean body mass (patients with T2DM [5]; [8]): 56.4 kg
% Lean body mass (patients with T2DM [5]; Cohort 2 (2-10 mg QW), D106-108, baseline 63.0%): 67.8%
Waist circumference (patients with T2DM [5]; Cohort 2 (2-10 mg QW), D106-108, baseline 108.6): 96.7 cm
body weight decrease from baseline compared to placebo (patients with T2DM [5]; Cohort 2 (2-10 mg QW), Day 50 through Day 162): statistically significant decreases
mean change from baseline in body weight (patients with T2DM [5]; Cohort 2 (2-10 mg QW), Day 109): −10.73 kg at Day 109.
mean body weight (patients with T2DM [5]; Cohort 2, Day 134 (after end of 16 weeks dosing), baseline 94.9): 84.05 kg
body weight, mean percent change from baseline (patients with T2DM [5]; [9]): −11.14%
waist circumference, approximate reduction from baseline (patients with T2DM [5]; [9]): ~9%
mean waist circumference (patients with T2DM [5]; Cohort 2, Day 134 (after end of dosing), baseline 106.93): 97.59 cm
body weight, mean percent change from baseline (patients with T2DM [5]; [10]): −6.56%
waist circumference, approximate reduction from baseline (patients with T2DM [5]; [10]): ~4%
mean body weight (patients with T2DM [5]; Cohort 2, Day 162 (after end of dosing), baseline 94.9): 88.96 kg
mean waist circumference (patients with T2DM [5]; Cohort 2, Day 162 (after end of dosing), baseline 106.93): 102.79 cm
body weight, mean percent change from baseline (patients with T2DM [5]; [11]): −4.04%
waist circumference, approximate reduction from baseline (patients with T2DM [5]; [11]): ~3%
mean body weight (patients with T2DM [5]; Cohort 2, escalated to 4.0 mg, Day 43, baseline 94.9): 90.38 kg
mean waist circumference (patients with T2DM [5]; Cohort 2, escalated to 4.0 mg, Day 43, baseline 106.93): 103.38 cm
body weight, mean percent change from baseline (patients with T2DM [5]; [12]): −7.07%
waist circumference, approximate reduction from baseline (patients with T2DM [5]; [12]): ~5%
mean body weight (patients with T2DM [5]; Cohort 2, escalated to 6.0 mg, Day 64, baseline 94.9): 87.69 kg
mean waist circumference (patients with T2DM [5]; Cohort 2, escalated to 6.0 mg, Day 64, baseline 106.93): 101.31 cm
body weight, mean percent change from baseline (patients with T2DM [5]; [13]): −9.05%
waist circumference, approximate reduction from baseline (patients with T2DM [5]; [13]): ~8%
mean body weight (patients with T2DM [5]; Cohort 2, escalated to 8.0 mg, Day 85, baseline 94.9): 85.88 kg
mean waist circumference (patients with T2DM [5]; Cohort 2, escalated to 8.0 mg, Day 85, baseline 106.93): 98.58 cm
body weight, mean percent change from baseline (patients with T2DM [5]; [14]): −12.71%
waist circumference, approximate reduction from baseline (patients with T2DM [5]; [14]): ~10%
mean body weight (patients with T2DM [5]; Cohort 2, escalated to 10 mg, Day 109, baseline 94.9): 82.55 kg
mean waist circumference (patients with T2DM [5]; Cohort 2, escalated to 10 mg, Day 109, baseline 106.93): 96.56 cm
body weight reduction (patients with T2DM [5]; dose 10 mg or greater): greater than 12%
body weight reduction (patients with T2DM [5]; dose greater than 6 mg): greater than 9%
reduction in waist circumference (patients with T2DM [5]; dose greater than 6.0 mg): greater than 5%
